Data reported in patent publication US11608313B2, “Adamantylmethylamine derivative and use thereof as pharmaceutical” (TOHOKU UNIVERSITY, priority 2017, dated 2023).

How the values were obtained:
Kir6.2 channels = target: T1, Kir6.2 channels (Mus musculus, UniProt Q61743); test: Patch-clamp assay of outward potassium current in Kir6.2 channel-overexpressing cells; assay type: cell-based; settings: 10 nM, whole-cell patch-clamp
T1 construct: The plasmid vector having inserted therein Kir6.2 channel cDNA: pcDNA3.1-Kir6.2; expressed in transfected cells; host or cells: Neuro2A (N2A) cells, mouse neuroblastoma
T1 sequence (Q61743 1-390): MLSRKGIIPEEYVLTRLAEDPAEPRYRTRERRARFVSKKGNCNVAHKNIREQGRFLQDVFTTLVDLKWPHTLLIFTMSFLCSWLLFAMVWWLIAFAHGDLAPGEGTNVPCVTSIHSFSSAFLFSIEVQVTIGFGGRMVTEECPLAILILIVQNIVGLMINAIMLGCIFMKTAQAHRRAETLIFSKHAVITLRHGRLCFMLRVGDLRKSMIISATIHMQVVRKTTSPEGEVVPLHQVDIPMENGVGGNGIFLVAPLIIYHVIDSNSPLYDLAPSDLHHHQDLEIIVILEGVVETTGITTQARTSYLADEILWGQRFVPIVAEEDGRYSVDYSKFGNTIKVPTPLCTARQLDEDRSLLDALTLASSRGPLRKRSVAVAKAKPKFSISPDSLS
Source text: The Kir6.2 channel-overexpressing cells obtained in Test Example 1 were used to measure potassium current discharged out of the cells by a conventional patch-clamp assay. ATP-sensitive potassium channels (Kir6.2 channels) are localized in the cell membranes of nerve cells. When the channels are inhibited and closed, the threshold of the nerve cell membranes increases to create a condition analogous to temporal generation of action potential, with the result that intracellular potassium current is discharged out of the cells and instead extracellular calcium current enters the cells. Immunoblotting of Kir6.2 channel-overexpressing cells (prepared by the aforementioned method) using an anti-Kir6.2 channel antibody (prepared by a conventional method) (n=5, under the same conditions as in Test Example 1, except for using the anti-Kir6.2 channel antibody) confirmed that Kir6.2 channels were overexpressed in N2A cells (FIG. 2-1; upper: immunoblot staining images; lower: quantitative representations of the signal intensity of staining bands).

[1] = test system: Kir6.2 channel-overexpressing cells; test: Calcium imaging in Kir6.2 channel-overexpressing cells; assay type: cell-based
Description: The same Kir6.2 channel-overexpressing cells as used in Test Example 1 were used to measure, by calcium imaging, the levels of calcium entering the cells after TP-014 treatment. The calcium imaging is a method in which cultured nerve cells are treated with a culture medium supplemented with a calcium fluorescent dye (Fura2, produced by Dojindo Laboratories) to a concentration of 4 μM, and measured for the levels of calcium based on fluorescence intensity. The imaging was carried out using an imaging apparatus (LAMBDA 10-2, produced by Sutter Instrument) in accordance with the attached manual.

[2] = test system: olfactory bulbectomized mice (OBX mice); test: Cognitive function in olfactory bulbectomized mice (Y-maze, novel object recognition and other tests); assay type: in vivo; settings: chronic oral treatment for 2 weeks
Description: The same experiment as in Test Example 4 was carried out using olfactory bulbectomized mice (OBX mice) as a neurodegenerative disease model. […] The OBX mice were prepared from 10-week-old DDY male mice (Nippon SLC, Hamamatsu, Japan). Olfactory bulbectomy surgery was carried out under anesthesia with pentobarbital sodium (50 mg/kg i.p.; Dainippon, Osaka, Japan). The mice were fixed on a stereotaxic apparatus to drill a 1 mm diameter hole in the skull above the olfactory bulb. The olfactory bulb was aspirated without causing damage to the prefrontal cortex. A sham group was prepared by the same procedure as that for the OBX group, without aspiration of olfactory bulb. One week was allowed for recovery from surgery, and behavioral analyses were performed on the day following the treatment with the test compound for 14 days (2 weeks).
The same model mice as described above were orally treated with a single dose of each of the test compounds (1 mg/kg), and analyzed after 1 hour by Y-maze test and novel object recognition test. The results are shown in FIGS. 22-3 and 22-4 (Y-maze test), and FIG. 22-5 (novel object recognition test).

OBX mice = test: Tail-suspension test and forced swim test in OBX mice (depression model); assay type: in vivo; settings: chronic oral treatment for 2 weeks, 1 mg/kg
Description: OBX mice were used as a depression model to determine the effect of TP-014 (chronic oral treatment for 2 weeks (1 mg/kg)) to ameliorate a depression-like symptom. OBX mice are reported to show a decline in cognitive function, but have originally been established as a depression model. Depression analysis was done by tail-suspension test and forced swim test. In the tail-suspension test, mice are hung upside-down by their tail. If the hung mice are affected by depression, they show a longer immobility time. The immobility time of normal mice is shorter since they move actively when hung. In the forced swim test, mice are forced to swim in a beaker filled with water. Depression mice neither swim nor move (just float). The time (immobility time(s)) for which mice stay still in such a way is measured.
The same model mice were orally treated with a single dose of each of the test compounds (1 mg/kg), and analyzed after 1 hour by tail-suspension test and forced swim test. The results are shown in FIGS. 22-1 (tail-suspension test) and 22-2 (forced swim test).

APP23 mice = test: Electrophysiological test of long-term potentiation (LTP) in hippocampal slices of APP23 mice; assay type: in vivo; settings: APP23 mice chronically treated

For `O=C(N[C@@H](c1ccccc1)[C@H]1[C@H]2C[C@@H]3C[C@](Cl)(C2)C[C@@]1(OC(=O)C(F)(F)F)C3)C(F)(F)F` [TP-014, (1S,2R,3S,5S,7S)-5-chloro-2-((R)-phenyl(2,2,2-trifluoroacetamido)methyl)adamantan-1-yl 2,2,2-trifluoroacetate], the “outwardly flowing potassium current” value (Kir6.2 channels) was “suppressed”, the intracellular calcium levels ([1]; 1-100 nM, 4 minutes after treatment, Kir6.2 channel-overexpressing cells) was “significantly increased” and the “potency to enhance calcium levels compared with memantine” value ([1]; TP-014 1-100 nM vs memantine 100 nM) was “more potent to enhance calcium levels than memantine”. For the same molecule, the cognitive function impairment [2] was “significantly improved”, the “immobility time (tail-suspension test and forced swim test)” value (OBX mice) was “improved” and the “LTP (percent increase in the excitability of nerve cells)” value (APP23 mice) was “improved”.
